The values that follow are results of earlier work, collected in patent publication US20170196950A1, “METHOD FOR PRODUCING AUTOLOGOUS TOLEROGENIC DENDRITIC CELLS (TOLDCS) WITH SPECIFIC ANTIGENS AND THEIR USE IN THE PREPARATION OF A MEDICAMENT USEFUL FOR THE TREATMENT OF SYSTEMIC LUPUS ERYTHEMATOSUS (SLE)” (PONTIFICIA UNIVERSIDAD CATOLICA DE CHILE, priority 2014, published 2017).

The subject of data set [1] is lupus nephritis patients. Conditions: maintenance phase.
Data set [2] has as its system lupus patients. Conditions: controlled clinical studies.

`COc1c(C)c2c(c(O)c1C/C=C(\C)CCC(=O)OCCN1CCOCC1)C(=O)OC2` [MMF, mycophenolate mofetil]: in data set [1], the “Patients who presented serious adverse effects” value is 23.5% and the “Patients withdrawn from the study” value is on record as 25.2%.

For the molecule `Cn1cnc([N+](=O)[O-])c1Sc1ncnc2nc[nH]c12` [azathioprine], in data set [1], the “Patients who presented serious adverse effects” value is recorded as 33.3% and the “Patients withdrawn from the study” value is 39.6%.

For rituximab, in data set [2], the Efficacy in lupus entry is “no efficacy”.
